{"source": "patent US10874643B2", "about": "(priority 2015, dated 2020)", "key": {"scn1Lab mutants [1]": {"test_system": "scn1Lab mutants", "experiment": "Locomotion tracking assay of seizure behavior (96-well format)", "conditions": "for effect on locomotor seizure behavior: 1 mM; for effect on locomotor seizure behavior / inhibition of spontaneous seizure behavior, initial library screen / convulsive/seizure behavior with antihistamines: 5 dpf; for effect on locomotor seizure behavior / inhibition of spontaneous seizure behavior, initial library screen: 6-12 fish; for 5HT library first-pass locomotion screen: 250 μM, 6 fish per drug, positive hit = reduction in mean swim velocity ≥38%; for swim activity / seizure behavior, third evaluation: 100 μM, 10 fish per trial; for seizure-induced swim activity and mean velocity, re-test on separate clutch: 667, 67 and 6.7 μM; for inhibition of spontaneous seizure behavior, initial library screen: 667 μM; for convulsive/seizure behavior with antihistamines: shelf screen at 0.1-1 mM"}, "scn1Lab mutants [2]": {"test_system": "scn1Lab mutants", "assay_type": "in vivo, zebrafish", "conditions": "for forebrain electrographic seizure activity in the same mutants after the locomotion assay: 100 μM, mutant embedded in agar; for fish in which epileptiform activity became more frequent following exposure: 1 mM"}, "wild-type larvae": {"test_system": "wild-type larvae", "experiment": "DMSO toxicity in wild-type larvae", "conditions": "dilutions between 0.01 and 100%; n=12 fish per concentration"}, "[3]": {"conditions": "1 mM bath applied, agar-embedded mutants 5-6 dpf, seven fish per drug, vs baseline"}, "[4]": {"conditions": "1 mM bath applied, 5-6 dpf, seven fish per drug, vs baseline"}}, "note": "Structures can show the parent of a compound that is named as a salt. Where two headings read alike, the source gives them in different places.", "data": [{"smiles": "CC(=O)Nc1nnc(S(N)(=O)=O)s1", "note": "[Acetazolamide]", "values": [{"measurement": "effect on locomotor seizure behavior", "setting": "scn1Lab mutants [1]", "value": "increased seizure behavior"}]}, {"smiles": "COc1ccccc1N1CCN(CCN2C(=O)CC3(CCCC3)CC2=O)CC1", "note": "[BMY 7378, 8-(2-[4-(2-methoxyphenyl)-1-piperazinyl]ethyl)-8-azaspiro[4.5]decane-7,9-dione]", "values": [{"measurement": "5HT library first-pass locomotion screen", "setting": "scn1Lab mutants [1]", "value": "positive hits"}]}, {"smiles": "CN1CCC(c2c[nH]c3ccc(O)cc23)CC1", "note": "[BRL-54443, 3-(1-methylpiperidin-4-yl)-1H-indol-5-ol]", "values": [{"measurement": "5HT library first-pass locomotion screen", "setting": "scn1Lab mutants [1]", "value": "positive hits"}]}, {"smiles": "C#CCN(C)CCCOc1ccc(Cl)cc1Cl", "note": "[Clorgiline]", "values": [{"measurement": "forebrain electrographic seizure activity in the same mutants after the locomotion assay", "setting": "scn1Lab mutants [2]", "value": "electrographic seizure events were still observed"}, {"measurement": "swim activity / seizure behavior, third evaluation", "setting": "scn1Lab mutants [1]", "value": "reduced swim activity"}, {"measurement": "seizure-induced swim activity and mean velocity, re-test on separate clutch", "setting": "scn1Lab mutants [1]", "value": "effective in reducing seizure-induced swim activity and mean velocity"}]}, {"smiles": "C[S+](C)[O-]", "note": "[DMSO]", "values": [{"measurement": "lethal DMSO concentration", "setting": "wild-type larvae", "value": "> 25", "unit": "%"}]}, {"smiles": "C[C@]12N[C@H](Cc3ccccc31)c1ccccc12", "note": "[MK-801]", "values": [{"measurement": "epileptic seizure events in sample EEG traces", "setting": "scn1Lab mutants [2]; zebrafish, in vivo", "value": "no suppression of epileptic events"}]}, {"smiles": "NCC(O)CC(=O)O", "note": "(centres unmarked) [aminohydroxybutyric acid]", "values": [{"measurement": "inhibition of spontaneous seizure behavior, initial library screen", "setting": "scn1Lab mutants [1]", "value": "ineffective"}]}, {"smiles": "CNCC[C@@H](Oc1ccccc1C)c1ccccc1", "note": "[atomoxetine]", "values": [{"measurement": "5HT library first-pass locomotion screen", "setting": "scn1Lab mutants [1]", "value": "positive hits"}]}, {"smiles": "O=C(CCCl)NCc1ccccc1", "note": "[beclamide]", "values": [{"measurement": "inhibition of spontaneous seizure behavior, initial library screen", "setting": "scn1Lab mutants [1]", "value": "ineffective"}]}, {"smiles": "O=C1CC2(CCCC2)CC(=O)N1CCCCN1CCN(c2ncccn2)CC1", "note": "[buspirone]", "values": [{"measurement": "5HT library first-pass locomotion screen", "setting": "scn1Lab mutants [1]", "value": "positive hits"}]}, {"smiles": "NC(=O)N1c2ccccc2C=Cc2ccccc21", "note": "[carbamazepine]", "values": [{"measurement": "Epileptiform event frequency (burst frequency; interictal- and ictal-like discharges)", "setting": "scn1Lab mutants [2]; [3]", "value": "increased burst frequency"}, {"measurement": "fish in which epileptiform activity became more frequent following exposure", "setting": "scn1Lab mutants [2]; seven fish per drug", "value": "2 of 7"}]}, {"smiles": "CN1C(=O)CN=C(c2ccccc2)c2cc(Cl)ccc21", "note": "[diazepam]", "values": [{"measurement": "Epileptiform event frequency (burst frequency; interictal- and ictal-like discharges)", "setting": "scn1Lab mutants [2]; zebrafish, in vivo", "value": "reduced"}, {"measurement": "fractional time spent seizing", "setting": "scn1Lab mutants [2]; zebrafish, in vivo", "value": "reduced"}, {"measurement": "effect on locomotor seizure behavior", "setting": "scn1Lab mutants [1]", "value": "effectively inhibited seizure behavior"}]}, {"smiles": "CCC1(C)CC(=O)NC1=O", "note": "(centres unmarked) [ethosuximide]", "values": [{"measurement": "fish in which epileptiform activity became more frequent following exposure", "setting": "scn1Lab mutants [2]; seven fish per drug", "value": "4 of 7"}, {"measurement": "effect on locomotor seizure behavior", "setting": "scn1Lab mutants [1]", "value": "increased seizure behavior"}]}, {"smiles": "CC(=O)[C@H]1CC[C@H]2[C@@H]3CC[C@H]4C[C@](C)(O)CC[C@]4(C)[C@H]3CC[C@]12C", "note": "[ganaxolone]", "values": [{"measurement": "effect on locomotor seizure behavior", "setting": "scn1Lab mutants [1]", "value": "effective"}]}, {"smiles": "CC(C)CCCC(C)NC(C)C", "note": "(centres unmarked) [iproheptine]", "values": [{"measurement": "convulsive/seizure behavior with antihistamines", "setting": "scn1Lab mutants [1]", "value": "failed to suppress convulsive behavior"}]}, {"smiles": "Nc1nnc(-c2cccc(Cl)c2Cl)c(N)n1", "note": "[lamotrigine]", "values": [{"measurement": "effect on locomotor seizure behavior", "setting": "scn1Lab mutants [1]", "value": "had no effect"}]}, {"smiles": "CC[C@@H](C(N)=O)N1CCCC1=O", "note": "[levetiracetam]", "values": [{"measurement": "effect on locomotor seizure behavior", "setting": "scn1Lab mutants [1]", "value": "had no effect"}]}, {"smiles": "C[C@H]1CNCCc2ccc(Cl)cc21", "note": "[lorcaserin]", "values": [{"measurement": "5HT library first-pass locomotion screen", "setting": "scn1Lab mutants [1]", "value": "positive hits"}]}, {"smiles": "CN1CCc2c(c3ccccc3n2Cc2ccccc2)C1.CN1CCc2c(c3ccccc3n2Cc2ccccc2)C1.O=S(=O)(O)c1cccc2c(S(=O)(=O)O)cccc12", "note": "[mebhydrolin napthalenesulfonate]", "values": [{"measurement": "convulsive/seizure behavior with antihistamines", "setting": "scn1Lab mutants [1]", "value": "failed to suppress convulsive behavior"}]}, {"smiles": "CNS(=O)(=O)CCc1ccc2[nH]cc(C3CCN(C)CC3)c2c1", "note": "[naratriptap]", "values": [{"measurement": "5HT library first-pass locomotion screen", "setting": "scn1Lab mutants [1]", "value": "positive hits"}]}, {"smiles": "CN1CCC(=C2c3ccccc3Sc3ccccc32)CC1", "note": "[pimethixene maleate]", "values": [{"measurement": "convulsive/seizure behavior with antihistamines", "setting": "scn1Lab mutants [1]", "value": "failed to suppress convulsive behavior"}]}, {"smiles": "[Br-].[K+]", "note": "[potassium bromide]", "values": [{"measurement": "fractional time spent seizing", "setting": "scn1Lab mutants [2]; [4]", "value": "reduced"}, {"measurement": "Epileptiform event frequency (burst frequency; interictal- and ictal-like discharges)", "setting": "scn1Lab mutants [2]; [3]", "value": "reduced"}, {"measurement": "effect on locomotor seizure behavior", "setting": "scn1Lab mutants [1]", "value": "effectively inhibited seizure behavior"}]}, {"smiles": "CN(C)CCc1c[nH]c2ccc(Cn3cncn3)cc12", "note": "[rizatriptan]", "values": [{"measurement": "5HT library first-pass locomotion screen", "setting": "scn1Lab mutants [1]", "value": "positive hits"}]}, {"smiles": "CC(C)(C)C(O)/C=C/c1ccc2c(c1)OCO2", "note": "(centres unmarked) [stiripentol]", "values": [{"measurement": "fractional time spent seizing", "setting": "scn1Lab mutants [2]; [4]", "value": "reduced"}, {"measurement": "Epileptiform event frequency (burst frequency; interictal- and ictal-like discharges)", "setting": "scn1Lab mutants [2]; [3]", "value": "reduced"}, {"measurement": "effect on locomotor seizure behavior", "setting": "scn1Lab mutants [1]", "value": "effectively inhibited seizure behavior"}]}, {"smiles": "CNS(=O)(=O)Cc1ccc2[nH]cc(CCN(C)C)c2c1", "note": "[sumatriptan]", "values": [{"measurement": "5HT library first-pass locomotion screen", "setting": "scn1Lab mutants [1]", "value": "positive hits"}]}, {"smiles": "CCNC1(c2cccs2)CCCCC1=O", "note": "(centres unmarked) [tiletamine]", "values": [{"measurement": "inhibition of spontaneous seizure behavior, initial library screen", "setting": "scn1Lab mutants [1]", "value": "ineffective"}]}, {"smiles": "Cc1ccc(C(=O)C(C)CN2CCCCC2)cc1", "note": "(centres unmarked) [tolperisone]", "values": [{"measurement": "forebrain electrographic seizure activity in the same mutants after the locomotion assay", "setting": "scn1Lab mutants [2]", "value": "electrographic seizure events were still observed"}, {"measurement": "swim activity / seizure behavior, third evaluation", "setting": "scn1Lab mutants [1]", "value": "reduced swim activity"}, {"measurement": "seizure-induced swim activity and mean velocity, re-test on separate clutch", "setting": "scn1Lab mutants [1]", "value": "effective in reducing seizure-induced swim activity and mean velocity"}]}, {"smiles": "O=c1n(CCCN2CCN(c3cccc(Cl)c3)CC2)nc2ccccn12", "note": "[trazodone]", "values": [{"measurement": "epileptic seizure events in sample EEG traces", "setting": "scn1Lab mutants [2]; FIG. 12B", "value": "suppression of epileptic seizure events"}, {"measurement": "EEG activity", "setting": "scn1Lab mutants [2]; concentrations between 250 and 500 μM, n=15", "value": "effectively suppressed EEG activity"}, {"measurement": "5HT library first-pass locomotion screen", "setting": "scn1Lab mutants [1]", "value": "positive hits"}, {"measurement": "toxicity in the locomotion assay", "setting": "scn1Lab mutants [1]; 750 μM", "value": "toxic"}, {"measurement": "inhibition of spontaneous seizure behavior, concentration-response re-test", "setting": "scn1Lab mutants [1]; concentrations between 100 and 750 μM, 30 or 90 min exposure, threshold ≥40%", "value": "robust inhibition of spontaneous seizure behavior"}]}, {"smiles": "COc1ccccc1N1CCN(CCCNc2cc(=O)n(C)c(=O)n2C)CC1", "note": "[urapidil]", "values": [{"measurement": "5HT library first-pass locomotion screen", "setting": "scn1Lab mutants [1]", "value": "positive hits"}]}, {"smiles": "COc1ccc(C(CN(C)C)C2(O)CCCCC2)cc1", "note": "(centres unmarked) [venlafaxine]", "values": [{"measurement": "5HT library first-pass locomotion screen", "setting": "scn1Lab mutants [1]", "value": "positive hits"}]}, {"smiles": "C=CC(N)CCC(=O)O", "note": "(centres unmarked) [vigabatrin]", "values": [{"measurement": "Epileptiform event frequency (burst frequency; interictal- and ictal-like discharges)", "setting": "scn1Lab mutants [2]; [3]", "value": "increased burst frequency"}, {"measurement": "fish in which epileptiform activity became more frequent following exposure", "setting": "scn1Lab mutants [2]; seven fish per drug", "value": "6 of 7"}]}, {"smiles": "O=C1Cc2cc(CCN3CCN(c4nsc5ccccc45)CC3)c(Cl)cc2N1", "note": "[ziprasidone]", "values": [{"measurement": "5HT library first-pass locomotion screen", "setting": "scn1Lab mutants [1]", "value": "positive hits"}]}, {"smiles": "CN(C)CCc1c[nH]c2ccc(C[C@H]3COC(=O)N3)cc12", "note": "[zolmitriptan]", "values": [{"measurement": "5HT library first-pass locomotion screen", "setting": "scn1Lab mutants [1]", "value": "positive hits"}]}]}
